Values joined by “and” are separate entries in the source; they are usually repeats but may differ in a detail not shown here. Equal values may be shown once.
System: human erythrocytes
Experiment: Untargeted metabolomics and 13C-glucose tracing of enolase inhibitor treated erythrocytes
Format: cell-based
Conditions: 1h
Procedure: Freshly collected erythrocytes were washed, resuspended to 10% hematocrit in buffer [25mM HEPES (pH 7.4), 120mM NaCl, 5.4mM KCl, 1.8mM CaCl2, and 1mM NaH2PO4], incubated for 1 hour at 37°C, then centrifuged at 2000xg for 5 minutes at 4°C, resuspended in fresh wash buffer to 30-40% hematocrit, and split into 210µL aliquots of packed erythrocytes. […] All samples were incubated at 37°C shaking at 500 RPM. Triplicate samples of supernatants and packed erythrocytes were collected at 0, 0.5, 1, and 6-hour intervals and snap-frozen in liquid N2.
RBC and media samples were extracted at 1:10 and 1:20 dilutions, respectively, in 5:3:2 MeOH : MeCN:H2O v/v/v, and supernatants analyzed on a Thermo Vanquish UHPLC coupled to a Thermo Q Exactive mass spectrometer, as extensively described ([Nemkov et al., 2015]; [Nemkov et al., 2017]). The extraction buffer was supplemented with 40uM 3-^13C lactate to allow absolute quantification of lactate isotopologues, including lactate generated via glycolysis ([1,2,3-^13C3] enriched) vs. the pentose phosphate pathway ([2,3-^13C2] enriched), as described ([Reisz et al., 2016]). Metabolite assignments, peak area integration and isotopologues distributions were determined using Maven (Princeton University) ([Nemkov et al., 2015]; [Nemkov et al., 2017]).
Data were auto-scaled and normalized to zero-hour time points. Metabolites were removed from the dataset if greater than 50% of the samples contained missing values or the relative standard deviation among replicates exceeded 25%. Additionally, data was filtered using the interquartile range to reduce near-constant values from the experiment by 5%.
A principal component analysis of preprocessed data was plotted with the 95% confidence interval minimum volume enclosing ellipsoid for each respective group (MetaboAnalyst, cluster, plotly). A two-way repeated measures analysis of variance (ANOVA) was performed with multiple comparisons corrected for using a false discovery rate p-value cutoff of 0.05. Metabolite-Pathway analysis was performed using the R package of MetaboAnalyst, as previously described ([Xia and Wishart, 2010]). Metabolite-Protein nodal analysis was performed using omicsnet.ca and as previously described ([Zhou and Xia, 2018]).

[1] = treated erythrocytes, one value per replicate sample, polarity +
[2] = treated erythrocytes, one value per replicate sample, polarity -
[3] = treated erythrocytes, replicate samples

Structure (SMILES): CC(C)(C)C(=O)OCOP(=O)(OCOC(=O)C(C)(C)C)C1CCCN(O)C1=O (stereo not shown) [POMHEX]
- AMP level (metabolomics signal) (replicate samples): 1.96E+06 and 2.60E+06 and 1.22E+06
- ATP level (metabolomics signal) (replicate samples): 1.32E+04 and 2.11E+04 and 3.43E+04
- Adenine level (metabolomics signal) (replicate samples): 1.75E+05 and 1.63E+05 and 1.61E+05
- Cytosine level (metabolomics signal) (replicate samples): 4.76E+05 and 3.43E+05 and 2.67E+05
- L-alanine level (metabolomics signal) (replicate samples): 1.12E+07 and 9.08E+06 and 1.05E+07
- L-arginine level (metabolomics signal) (replicate samples): 4.18E+06 and 1.19E+07 and 3.04E+06
- L-asparagine level (metabolomics signal) (replicate samples): 7.53E+06 and 8.13E+06 and 7.16E+06
- L-aspartate level (metabolomics signal) (replicate samples): 2.28E+07 and 2.29E+07 and 1.75E+07
- L-cysteine level (metabolomics signal) (replicate samples): 2.57E+05 and 1.28E+06 and 6.21E+05
- L-glutamate level (metabolomics signal) (replicate samples): 2.16E+07 and 2.10E+07 and 1.73E+07
- L-glutamine level (metabolomics signal) (replicate samples): 6.97E+07 and 8.81E+07 and 6.57E+07
- L-histidine level (metabolomics signal) (replicate samples): 1.22E+06 and 1.29E+06 and 1.07E+06
- L-isoleucine level (metabolomics signal) (replicate samples): 9.19E+06 and 1.31E+07 and 8.52E+06
- L-leucine level (metabolomics signal) (replicate samples): 1.97E+08 and 2.85E+08 and 1.36E+08
- L-lysine level (metabolomics signal) (replicate samples): 1.46E+06 and 1.53E+06 and 1.05E+06
- L-methionine level (metabolomics signal) (replicate samples): 1.81E+07 and 2.91E+07 and 1.59E+07
- L-phenylalanine level (metabolomics signal) (replicate samples): 1.22E+07 and 1.56E+07 and 8.20E+06
- L-proline level (metabolomics signal) (replicate samples): 4.14E+07 and 6.25E+07 and 4.63E+07
- L-serine level (metabolomics signal) (replicate samples): 6.19E+06 and 5.89E+06 and 5.91E+06
- L-threonine level (metabolomics signal) (replicate samples): 7.85E+06 and 8.68E+06 and 7.03E+06
- L-tryptophan level (metabolomics signal) (replicate samples): 4.00E+06 and 3.89E+06 and 2.67E+06
- L-tyrosine level (metabolomics signal) (replicate samples): 2.39E+07 and 3.62E+07 and 2.21E+07
- L-valine level (metabolomics signal) (replicate samples): 1.59E+08 and 1.34E+08 and 1.66E+08
- dCMP level (metabolomics signal) (replicate samples): 6.47E+03 and 1.42E+04 and 8.65E+03
- dTMP level (metabolomics signal) (replicate samples): 6.95E+05 and 1.44E+06 and 5.66E+05
- glycine level (metabolomics signal) (replicate samples): 2.53E+06 and 2.52E+06 and 2.98E+06
- N-Acyl-D-aspartate (C06380) metabolite signal [1]: 1.39E+05 and 1.05E+05 and 7.72E+04
- Poly-gamma-D-glutamate (C05723) metabolite signal [1]: 4.55E+07 and 6.01E+07 and 4.31E+07
- D-Ribitol 5-phosphate (C01068) metabolite signal [2]: 1.36E+04 and 3.79E+04 and 1.11E+04
- D-glucono-1,5-lactone (C00198) metabolite signal [2]: 3.37E+05 and 3.01E+05 and 3.48E+05
- L-Noradrenaline (C00547) metabolite signal [2]: 3.29E+04 and 4.04E+04 and 2.83E+04
- Oxalosuccinate (C05379) metabolite signal [2]: 9.85E+04 and 9.72E+04 and 1.00E+05
- Pyridoxamine (C00534) metabolite signal [2]: 1.26E+04 and 1.81E+04 and 8.56E+03
- Thioredoxin disulfide (C00343) metabolite signal [2]: 3.49E+04 and 1.17E+05 and 2.13E+04
- 1-4-beta-D-Xylan (metabolite signal) [3]: 1.76E+05 and 2.60E+05 and 1.54E+05
- 2-Hydroxyglutarate/Citramalate (C02630) metabolite signal [3]: 4.45E+04 and 4.76E+04 and 4.24E+04
- 5-6-Dihydrothymine (C00906) metabolite signal [3]: 2.57E+05 and 3.03E+05 and 1.85E+05
- 5-10-Methenyltetrahydrofolate (metabolite signal) [3]: 1.81E+05 and 1.74E+05 and 1.10E+05
- 5-Hydroxyisourate (C11821) metabolite signal [3]: 4.87E+06 and 2.62E+06 and 4.93E+06
- 5-L-Glutamyl-taurine (metabolite signal) [3]: 1.73E+05 and 9.38E+04 and 2.11E+05
- 5-Oxoproline (metabolite signal) [3]: 5.99E+05 and 6.10E+05 and 6.21E+05
- (S)(+)-Allantoin (C02350) metabolite signal [3]: 1.83E+04 and 1.70E+04 and 1.48E+04
- Allantoate (C00499) metabolite signal [3]: 1.28E+05 and 4.06E+05 and 1.02E+05
- Ascorbate (metabolite signal) [3]: 6.30E+04 and 1.08E+05 and 4.97E+04
- CMP-N-acetylneuraminate (metabolite signal) [3]: 6.05E+03 and 4.63E+03 and 2.62E+03
- Carnosine (metabolite signal) [3]: 2.09E+05 and 1.71E+05 and 1.90E+05
- Citrate (C00158) metabolite signal [3]: 1.89E+04 and 2.10E+04 and 1.46E+04
- Creatine (metabolite signal) [3]: 2.57E+08 and 2.12E+08 and 2.30E+08
- Creatinine (metabolite signal) [3]: 2.38E+06 and 2.51E+06 and 2.49E+06
- Cys-Gly (metabolite signal) [3]: 7.57E+05 and 1.20E+06 and 8.09E+05
- D-Glucosamine (metabolite signal) [3]: 6.03E+05 and 3.34E+05 and 1.05E+06
- D-Glucose (C00031) metabolite signal [3]: 4.53E+06 and 6.78E+06 and 3.73E+06
- D-Ribose (C00121) metabolite signal [3]: 1.22E+05 and 1.96E+05 and 1.18E+05
- Dehydroascorbate (metabolite signal) [3]: 4.03E+04 and 3.78E+04 and 2.56E+04
- Dihydrofolate (metabolite signal) [3]: 6.94E+05 and 1.83E+06 and 6.55E+05
- Dimethylglycine (metabolite signal) [3]: 1.12E+06 and 8.60E+05 and 1.04E+06
- Diphosphate (C00013) metabolite signal [3]: 1.40E+04 and 3.85E+04 and 1.73E+04
- Fumarate (C00122) metabolite signal [3]: 8.16E+04 and 8.08E+04 and 7.78E+04
- Glutathione (C00051) metabolite signal [3]: 5.06E+07 and 7.77E+07 and 5.74E+07
- Glutathione disulfide (metabolite signal) [3]: 7.45E+04 and 7.57E+04 and 5.41E+04
- Hypoxanthine (C00262) metabolite signal [3]: 6.66E+03 and 1.71E+04 and 1.69E+04
- IMP (C00130) metabolite signal [3]: 7.81E+04 and 9.15E+04 and 6.22E+04
- Inosine (C00294) metabolite signal [3]: 6.22E+04 and 5.44E+04 and 6.05E+04
- L-Citrulline (metabolite signal) [3]: 5.24E+06 and 4.00E+06 and 4.92E+06
- L-Homoserine (metabolite signal) [3]: 1.76E+05 and 2.52E+05 and 1.58E+05
- Lactate (C01432) metabolite signal [3]: 7.95E+06 and 9.12E+06 and 7.54E+06
- Malate (C00149) metabolite signal [3]: 6.76E+04 and 6.17E+04 and 6.25E+04
- Mannitol (C00392) metabolite signal [3]: 1.25E+05 and 1.54E+05 and 1.02E+05
- N-Acetylneuraminate (metabolite signal) [3]: 1.98E+04 and 1.32E+04 and 1.62E+04
- N-Glycoloyl-neuraminate (metabolite signal) [3]: 7.97E+04 and 1.42E+05 and 5.68E+04
- NAD+ (C00003) metabolite signal [3]: 1.57E+04 and 4.46E+04 and 2.15E+04
- Nicotinamide (C00153) metabolite signal [3]: 4.80E+07 and 5.08E+07 and 4.18E+07
- Ornithine (metabolite signal) [3]: 1.57E+06 and 1.30E+06 and 1.16E+06
- Oxaloacetate (C00036) metabolite signal [3]: 3.29E+04 and 5.49E+04 and 3.03E+04
- Phosphoserine (metabolite signal) [3]: 0.00E+00 (2×) and 1.77E+04
- Putrescine (metabolite signal) [3]: 4.04E+04 and 3.04E+04 and 2.63E+04
- Pyridoxal (C00250) metabolite signal [3]: 5.25E+04 and 8.23E+04 and 7.59E+04
- Pyruvate (C00022) metabolite signal [3]: 5.39E+05 and 7.10E+05 and 4.33E+05
- S-Glutathionyl-L-cysteine (metabolite signal) [3]: 5.57E+04 and 6.02E+04 and 1.82E+04
- Sedoheptulose 1-phosphate (C06222) metabolite signal [3]: 2.81E+03 and 3.84E+03 and 2.38E+03
- Spermidine (metabolite signal) [3]: 7.32E+06 and 6.78E+06 and 6.25E+06
- Spermine (metabolite signal) [3]: 7.58E+06 and 7.10E+06 and 6.92E+06
- Succinate (C00042) metabolite signal [3]: 6.13E+04 and 9.94E+04 and 5.79E+04
- Thymidine (C00214) metabolite signal [3]: 1.12E+04 and 1.26E+04 and 8.73E+03
- UDP (C00015) metabolite signal [3]: 5.07E+04 and 1.42E+05 and 2.88E+04
- UDP-N-acetyl-D-glucosamine (metabolite signal) [3]: 2.55E+03 and 3.51E+03 and 2.64E+03
- UDP-glucose (C00029) metabolite signal [3]: 5.62E+03 and 1.08E+04 and 6.04E+03
- Urate (C00366) metabolite signal [3]: 2.31E+04 and 2.80E+04 and 2.12E+04
- Xanthine (C00385) metabolite signal [3]: 1.88E+05 and 1.43E+05 and 1.48E+05
- alpha-D-Glucosamine 1-phosphate (metabolite signal) [3]: 8.86E+05 and 4.48E+05 and 1.21E+06
- alpha-D-Ribose 1-phosphate (C00620) metabolite signal [3]: 2.29E+04 and 4.78E+04 and 2.91E+04
- gamma-Glutamyl-gamma-aminobutyrate (metabolite signal) [3]: 9.00E+04 and 5.89E+04 and 7.26E+04
- gamma-L-Glutamyl-D-alanine (metabolite signal) [3]: 1.81E+04 and 1.74E+04 and 1.70E+04
- gamma-L-Glutamyl-L-cysteine (metabolite signal) [3]: 1.43E+04 and 3.68E+04 and 6.67E+03

— article PMC8482815, “Targeting Host Glycolysis as a Strategy for Antimalarial Development” (Frontiers in Cellular and Infection Microbiology, 2021)
